The values that follow come from ChEMBL document CHEMBL5584231, “Rational design of a new short anticancer peptide with good potential for cancer treatment” (Eur J Med Chem, 2024).

In general, IC50 refers to the concentration at which inhibition is half-maximal.

The test system of data set [1] is Cell membrane. Kind of data set: Induction of cell membrane damage in human MCF7 cells assessed as protein leakage at 1 to 2 times IC50 measured after 0.5 to 6 hrs by UV based analysis. Format: cell membranes. Particulars: time 0.5-6 hrs.
Data set [2] concerns MCF7. Kind of data set: Induction of apoptosis in human MCF7 cells assessed as dead cells at 1 times IC50 measured after 24 hrs by Annexin V-FITC staining based flow cytometry analysis (reference value: 6.41%). Format: functional.
Data set [3] concerns A549. The data set can be described thus: Cytotoxicity against human A549 cells assessed as inhibition of cell growth incubated for 1 hr by MTT assay. Format: functional, cell-based. Particulars: A549, 1 h. Background: Formazan colour is commonly taken as a measure of viable cells.
The test system of data set [4] is MCF7. Kind of data set: Induction of apoptosis in human MCF7 cells assessed as late apoptotic cells at 1 times IC50 measured after 24 hrs by Annexin V-FITC staining based flow cytometry analysis (reference value: 1.60%). Format: functional. (In general: In flow cytometry, cells or beads pass a laser one at a time.)
The subject of data set [5] is MCF7. Kind of data set: Anti-invasion activity in human MCF7 cells assessed as reduction in number of passing cells on polycarbonate membrane at 1 times IC50 measured after 24 hrs by crystal violet staining based transwell assay. The class given is functional, cell-based.
The nature of data set [6]: Acute toxicity in female Balb/c mouse assessed as reduction in survival rate at 65 to 110 mg/kg, ip administered as single dose and measured for 7 days. The class given is organism-based. As to conditions: in vivo, 168 h, dose 65-110 mg/kg, time 7 day.
The test system of data set [7] is MCF7. Kind of data set: Cytotoxicity against human MCF7 cells assessed as cell death at 1 times IC50 measured within 30 mins by MTT assay relative to control. As to conditions: 0.5 h. Format: functional.
The subject of data set [8] is 4T1. Kind of data set: Antitumor activity against mouse 4T1 cells implanted in female Balb/c mouse assessed as increase in tumor cell necrosis at 12 micromol/kg, ip administered every other day for 2 weeks by H and E staining based analysis. Format: functional, organism-based. As to conditions: dose 12.0 µmol/kg.
The nature of data set [9]: Toxicity in female Balb/c mouse implanted with mouse 4T1 cells assessed as animal death at 12 micromol/kg, ip administered every other day for 2 weeks. Particulars: in vivo, 336 h, dose 12 µmol/kg. Format: organism-based.
The nature of data set [10]: Acute toxicity in female Balb/c mouse assessed as cellular swelling in spleen at approximately LD50 administered as single ip dose by H and E staining based analysis. The class given is organism-based. As to conditions: in vivo.
Data set [11] can be described thus: Acute toxicity in female Balb/c mouse assessed as reduction in survival rate at 50 mg/kg, ip administered as single dose and measured for 7 days. Format: organism-based. Particulars: in vivo, 168 h, time 7 day.
In data set [12] the test system is MCF7. The data set can be described thus: Induction of cell cycle arrest at G0/G1 phase in human MCF7 cells at 1 times IC50 measured after 24 hrs by PI/RNase staining based flow cytometry analysis. Format: functional.
The test system of data set [13] is MCF7. Kind of data set: Antimigratory activity in human MCF7 cells assessed as reduction in cell migration at 1 times IC50 measured after 24 hrs by scratch-wound healing assay. Format: functional, cell-based.
Data set [14] has as its system 4T1. Kind of data set: Antitumor activity against mouse 4T1 cells implanted in female Balb/c mouse assessed as increase in tumor cell apoptosis at 12 micromol/kg, ip administered every other day for 2 weeks by H and E staining based analysis. The class given is functional, organism-based. Particulars: dose 12.0 µmol/kg.
Data set [15] has as its system MCF7. Kind of data set: Induction of apoptosis in human MCF7 cells assessed as early apoptotic cells at 1 times IC50 measured after 24 hrs by Annexin V-FITC staining based flow cytometry analysis (reference value: 0.014%). Format: functional.
Data set [16] is described as follows: Stability in mouse serum assessed as compound remaining at 10 mM incubated for 6 hrs by RP-HPLC analysis. Format: ADME, cell-free. Particulars: read-out: Stability.
Data set [17] can be described thus: Cytotoxicity against RG cells (unknown origin) assessed as inhibition of cell growth incubated for 1 hr by MTT assay. The class given is functional, cell-based.
Data set [18] is described as follows: Acute toxicity in female Balb/c mouse assessed as reduction in survival rate at 37 mg/kg, ip administered as single dose and measured for 7 days. The class given is organism-based. Particulars: in vivo, 168 h, time 7 day.
Data set [19] is described as follows: Acute toxicity in female Balb/c mouse assessed as shrinking cytoplasm in kidney at approximately LD50 administered as single ip dose by H and E staining based analysis. Format: organism-based. Particulars: in vivo.
A short description of data set [20]: Acute toxicity in female Balb/c mouse assessed as necrosis in kidney at approximately LD50 administered as single ip dose by H and E staining based analysis. Format: organism-based. As to conditions: in vivo.
Data set [21] can be described thus: Acute toxicity in female Balb/c mouse assessed as reduction in survival rate at 37 to 55 mg/kg, ip administered as single dose and measured for 7 days. Format: organism-based. Particulars: in vivo, 168 h, dose 37-55 mg/kg, time 7 day.
Data set [22] can be described thus: Acute toxicity in female Balb/c mouse assessed as reduction in survival rate at 65 mg/kg, ip administered as single dose and measured for 7 days. As to conditions: in vivo, 168 h, time 7 day. Format: organism-based.
Data set [23] concerns 4T1. Kind of data set: Antitumor activity against mouse 4T1 cells implanted in female Balb/c mouse assessed as nucleus contraction at 12 micromol/kg, ip administered every other day for 2 weeks by H and E staining based analysis. Format: functional, organism-based. As to conditions: dose 12.0 µmol/kg.
The test system of data set [24] is 4T1. The data set can be described thus: Antitumor activity against mouse 4T1 cells implanted in female Balb/c mouse assessed as increase in tumor cell lysis at 12 micromol/kg, ip administered every other day for 2 weeks by H and E staining based analysis. Format: functional, organism-based. As to conditions: dose 12.0 µmol/kg.
Data set [25] can be described thus: Acute toxicity in female Balb/c mouse assessed as reduction in survival rate at 82 to 130 mg/kg, ip administered as single dose and measured for 7 days. As to conditions: in vivo, 168 h, dose 82-130 mg/kg, time 7 day. Format: organism-based.

Active and inactive are the calls of the source. No cut-off for these calls is given here. Non-standard residues stand in square brackets, D forms with d. Residues, ends and D or L forms follow the SMILES beside them. Aad = N[C@@H](CCCC(=O)O)C(=O)O

Consider `CC(C)C[C@H](NC(=O)[C@H](CCCCN)NC(=O)[C@H](CCCCN)NC(=O)[C@H](CC(C)C)NC(=O)[C@H](CC(C)C)NC(=O)[C@H](CCCCN)NC(=O)[C@H](CCCCN)NC(=O)[C@H](CC(C)C)NC(=O)[C@H](CC(C)C)NC(=O)[C@H](CCCCN)NC(=O)[C@H](CCCCN)NC(=O)[C@H](CC(C)C)NC(=O)[C@@H](N)CC(C)C)C(=O)N[C@@H](CCC(=O)O)C(N)=O` (H-LLKKLLKKLLKKLE-NH2), for which the outcome in data set [1], in [5], in [8], in data set [12], in data set [13] and in [14] was Active. Also, the Activity in [2] is 5.69%; in data set [4] it was 19.1%; in [6], “Toxic”; in data set [7], ~50%; in data set [9], “Non-Toxic”; in data set [10], “Toxic”. Moreover, the Activity result is reported as “Non-Toxic” in data set [11] and 18% in [15]. The results for the IC50 in data set [3] and in data set [17] were 14.4 µM and 21.3 µM, respectively. For the same compound, the remaining at 6 h, 10000 µM in data set [16] is > 60%.
For the compound `CC(C)C[C@H](NC(=O)[C@H](CC(C)C)NC(=O)[C@H](CCCCN)NC(=O)[C@H](CCCCN)NC(=O)[C@H](CC(C)C)NC(=O)[C@H](CC(C)C)NC(=O)[C@H](CCCCN)NC(=O)[C@H](CCCCN)NC(=O)[C@H](CC(C)C)NC(=O)[C@H](CC(C)C)NC(=O)[C@H](CCCCN)NC(=O)[C@H](CCCCN)NC(=O)[C@H](CC(C)C)NC(=O)[C@@H](N)CC(C)C)C(N)=O` (H-LLKKLLKKLLKKLL-NH2), the outcome in data set [1], in [5], in data set [8], in data set [12], in data set [13] and in data set [14] was Active. For the same compound, the Activity in data set [2] was 3.79%; in data set [4], 19.2%; in data set [7], ~50%; in [9], “Non-Toxic”; in [10] it was “Toxic”; in [18], “Non-Toxic”. In addition, the Activity result in [19] was “Toxic”; in data set [15] it was 18.9%; in [20], “Toxic”; in [21] it was “Toxic”. The IC50 in [3] is 3.65 µM; in data set [17] it was 6.41 µM. Besides, the remaining at 6 h, 10000 µM in [16] was > 60%.
Regarding `CC(C)C[C@H](NC(=O)[C@H](CCCCN)NC(=O)[C@H](CCCCN)NC(=O)[C@H](CC(C)C)NC(=O)[C@H](CC(C)C)NC(=O)[C@H](CCCCN)NC(=O)[C@H](CCCCN)NC(=O)[C@H](CC(C)C)NC(=O)[C@H](CC(C)C)NC(=O)[C@H](CCCCN)NC(=O)[C@H](CCCCN)NC(=O)[C@H](CC(C)C)NC(=O)[C@@H](N)CC(C)C)C(=O)N[C@@H](CCCC(=O)O)C(N)=O` (H-LLKKLLKKLLKKL[Aad]-NH2), the result in data set [1], in data set [5], in data set [8], in data set [23], in data set [12] and in data set [13] was Active. The outcome in data set [24] and in data set [14] was Active. In addition, the Activity was 4.4% in [2]; “Non-Toxic” in data set [22]; 13.8% in [4]; ~50% in data set [7]; “Non-Toxic” in data set [9]; “Toxic” in [10]. Also, the Activity result is “Toxic” in data set [25] and 25.9% in [15]. Further, the IC50 in data set [3] came to 10.3 µM; in [17], 20.1 µM. In addition, the remaining at 6 h, 10000 µM in data set [16] is > 60%.
